# Source: patent publication US5326882A, “Chemiluminescent 3-(substituted Adamant-2'-Ylidene) 1,2-dioxetanes” (Tropix, Inc., priority 1992, dated 1994)
# How the values were obtained:
# alkaline phosphatase [1] = target: T1, alkaline phosphatase (Bos taurus, UniProt P19111); test: Half-time to plateau at low alkaline phosphatase concentration (Example XLI); assay type: biochemical; details: 0.4 mM dioxetane at pH 10.0; 31.5° C.; 2.53 × 10^-13 M alkaline phosphatase
# alkaline phosphatase [2] = target: T1, alkaline phosphatase; test: Chemiluminescent signal-to-noise levels with enhancers (Example XXIV); assay type: biochemical
# Description: The chemiluminescent signal to noise levels were obtained with 2.83×10^-13 M alkaline phosphatase and various R-substituted adamantyl 1,2-dioxetane phosphates in the presence of several enhancers. All measurements were performed in a Berthold LB952T luminometer at room temperature. First, the background chemiluminescence levels (signal in the absence of the enzyme) of each sample (in triplicate) were measured. Each sample consisted of 0.2 μmoles of dioxetane in 0.45 ml of 0.1 M diethanolamine, 1 mM MgCl2, pH 10.0, without or with 1 mg/ml of the indicated enhancer. Tubes were inserted into the luminometer and the luminescence intensity was measured. Next, the tubes were removed from the luminometer and alkaline phosphatase (50 μl containing 1.415×10^-16 moles) was added to each tube, and the luminescence intensity was measured at 5 and 20 minutes after substrate addition. The final concentration of dioxetane in each tube was 0.4 mM.
# All enhancers used at 1 mg/ml in 0.1 M DEA, pH 10. Alkaline phosphatase concentration=2.83×10^-13 M. Measurements performed in a Berthold LB952T Luminometer.
# alkaline phosphatase [3] = target: T1, alkaline phosphatase; test: Detection limits for alkaline phosphatase, Berthold LB952T (Example XXII); assay type: biochemical; details: twice background
# Description: (§1) The detection means for alkaline phosphatase with different chemiluminescent 1,2-dioxetane substrates were determined as follows: Duplicates of serial dilutions (1 to 3) of alkaline phosphates were incubated at room temperature with 0.4 mM dioxetane in 0.1 M diethanolamine, 1 mM MgCl2, pH 10.0, containing 1 mg/ml of either of the polymeric enhancers Enhancer 1 or Enhancer 2, in […].
# (§2) Following either a 5 or a 20 minute incubation with a substrate, the chemiluminescence intensity was measured as a 5 second integrated Relative Light Units (RLU) and plotted as in FIG. 10. […] The alkaline phosphatase concentrations at twice background were used as the detection limits in Table 5.
# [4] = target: T2, alkaline phosphatase (calf intestine; Biozyme) (Bos taurus, UniProt P19111); test: Total dephosphorylation, chemiluminescence decay (Example XIII); assay type: biochemical; details: 30° C., carbonate/bicarbonate buffer
# T2 construct: purchased Biozyme; host or cells: calf intestine
# T2 sequence (P19111 20-506 limits assumed): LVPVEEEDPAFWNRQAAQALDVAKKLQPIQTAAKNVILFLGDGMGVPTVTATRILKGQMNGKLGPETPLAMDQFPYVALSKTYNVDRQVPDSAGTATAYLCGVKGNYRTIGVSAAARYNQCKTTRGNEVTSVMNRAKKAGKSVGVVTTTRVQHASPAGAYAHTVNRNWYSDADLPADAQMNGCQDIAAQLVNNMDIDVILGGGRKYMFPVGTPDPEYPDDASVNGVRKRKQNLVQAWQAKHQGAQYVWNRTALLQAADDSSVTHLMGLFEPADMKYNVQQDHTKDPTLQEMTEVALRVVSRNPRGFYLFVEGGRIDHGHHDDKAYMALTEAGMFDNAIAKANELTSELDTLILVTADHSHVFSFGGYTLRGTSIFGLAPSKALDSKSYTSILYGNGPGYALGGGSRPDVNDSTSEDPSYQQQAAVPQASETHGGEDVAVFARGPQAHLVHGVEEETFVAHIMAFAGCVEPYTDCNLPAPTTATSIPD
# Description: A comparison of the total luminescence emission from AMPPD and from the corresponding 1,2-dioxetanes whose adamant-2'-ylidene groups are monosubstituted with hydroxy (A and B isomers), chloro and bromo groups was made by carrying out total dephosphorylation experiments on each of these compounds.
# An aqueous solution of the 1,2-dioxetane (4.0 mm) in 0.05M sodium carbonate/sodium bicarbonate containing 1 mM magnesium chloride was prepared and then equilibrated at 30° C. Ten μl of a 7.64×10M aqueous solution of alkaline phosphatase (calf intestine; Biozyme) was then added, and the chemiluminescence from the resulting solution was recorded using a Turner Model 20E luminometer (Turner Instruments; Sunnyvale, Calif.).
# The rates of chemiluminescence decay for each of the five compounds in question, expressed in relative light units (RLU's) per minute, are given in the following table.
# [5] = target: T3, alkaline phosphatase-labeled DNA probe (Bos taurus, UniProt P19111); test: Alkaline phosphatase-labeled DNA probe detection in membrane with and without BDMQ blocking step (Example XV); details: for Detection limit (in picograms DNA) 5. min. exp.: five minute exposure 40 minutes after dioxetane addition; for Detection limit (in picograms DNA) 1 min. exp.: one minute exposure 77 minutes after dioxetane addition
# T3 construct: purchased Tropix, Inc
# T3 sequence (P19111 20-506 limits assumed): as above
# T3 sequence (P02701 25-152 partner): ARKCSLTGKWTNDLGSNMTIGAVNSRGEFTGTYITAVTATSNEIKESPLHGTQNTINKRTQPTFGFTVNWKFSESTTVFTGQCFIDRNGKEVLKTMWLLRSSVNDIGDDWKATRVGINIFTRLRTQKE
# Description: pBr 322 plasmid (4700 bp) was subjected to a nick translation process using a Trans-Light kit (Tropix, Inc., Bedford, Mass.) to generate a mixture of biotinylated single stranded polynucleotides of 200-2000 bps in length.
# This mixture was dotted onto a dry BIODYNE A membrane as five parallel columns of dots of the following concentrations:
# The membrane was subjected to ultraviolet irradiation (UVP Mineral Light; UVP, San Gabriel, Calif.) for 3 minutes to fix the DNA to the surface of the membrane, then air dried. Next, the membrane was blocked in 0.2% casein/0.1% Tween 20 detergent in PBS for 1 hour, following which 1/5000 diluted avidin-alkaline phosphatase conjugate (Tropix, Inc.) in 0.2% casein in PBS was added. The membrane was then incubated for 30 minutes, washed three times (for 5 minutes each time) in 0.2% casein/0.1% Tween 20 detergent in PBS and washed once for five minutes in aqueous 0.1M diethanolamine containing 1 mm magnesium chloride and 0.02% sodium azide, pH 10.0 (substrate buffer).
# Next, the five columns of rows of dots 1-5 were individually cut from the membrane ("strips 1-5"), as were the five columns of rows of dots 6-10 ("strips 6-10"). Strips 1-5 were washed with substrate buffer for 30 minutes. Strips 6-10 were blocked in 0.1% BDMQ in substrate buffer for 30 minutes. Both sets of strips were then incubated for 5 minutes in substrate buffer, then individually incubated for five minutes in aqueous solutions (0.25 mM) of 1,2-dioxetanes as indicated below:
# All strips were then placed in camera luminometers and exposed on Polaroid Type 612 instant black and white film.
# alkaline phosphatase [6] = target: T1, alkaline phosphatase; test: Alkaline phosphatase detection limits, Wilj microtiter plate luminometer (Example XXVI); assay type: biochemical; details: 23 MINUTE INCUBATION
# alkaline phosphatase [7] = target: T1, alkaline phosphatase; test: Alkaline phosphatase detection limits, LabSystems Luminoskan (Example XXV); assay type: biochemical
# Description: as §1, §2
# The luminometer used in this example was LabSystems Luminoskan microtiter plate reader.
# [8] = enhancer NONE, 5 min, alkaline phosphatase 2.83×10^-13 M
# T1 sequence (P19111 20-506 limits assumed): as the sequence (P19111 20-506 limits assumed) above
structure (smiles),measurement,setting,value
"COC12CC3CC(C1)C1(OOC1(OC)c1cccc(OP(=O)(O)O)c1)C(C3)C2 (single isomer, unassigned) [CH3 O-AMPPD-A]",HALF-TIME TO PLATEAU (min.) AL LOW ALK PHOS CONCENTRATION,alkaline phosphatase [1],0.86 min
COC1(c2cccc(OP(=O)(O)O)c2)OOC12C1CC3CC2CC(Br)(C3)C1 (centres unmarked) [BrSPD],HALF-TIME TO PLATEAU (min.) AL LOW ALK PHOS CONCENTRATION,alkaline phosphatase [1],0.70 min
"COC1(c2cccc(OP(=O)(O)O)c2)OOC12C1CC3CC2CC(OC(C)C)(C3)C1 (single isomer, unassigned) [i-PrO-AMPPD-A]",HALF-TIME TO PLATEAU (min.) AL LOW ALK PHOS CONCENTRATION,alkaline phosphatase [1],0.93 min
"COC1(c2cccc(OP(=O)(O)O)c2)OOC12C1CC3CC2CC(O)(C3)C1 (single isomer, unassigned) [HO-AMPPD]",chemiluminescent signal-to-noise level,"alkaline phosphatase [2]; EMERALD 1 1 mg/ml, 5 min",307
same,chemiluminescent signal-to-noise level,"alkaline phosphatase [2]; EMERALD 1 1 mg/ml, 20 min",386
same,chemiluminescent signal-to-noise level,"alkaline phosphatase [2]; EMERALD 2 1 mg/ml, 5 min",247
same,chemiluminescent signal-to-noise level,"alkaline phosphatase [2]; EMERALD 2 1 mg/ml, 20 min",299
same,chemiluminescent signal-to-noise level,"alkaline phosphatase [2]; SAPPHIRE 1 1 mg/ml, 5 min",229
same,chemiluminescent signal-to-noise level,"alkaline phosphatase [2]; SAPPHIRE 1 1 mg/ml, 20 min",305
same,chemiluminescent signal-to-noise level,"alkaline phosphatase [2]; SAPPHIRE 2 1 mg/ml, 5 min",466
same,chemiluminescent signal-to-noise level,"alkaline phosphatase [2]; SAPPHIRE 2 1 mg/ml, 20 min",643
same,chemiluminescent signal-to-noise level,alkaline phosphatase [2]; [8],55
same,chemiluminescent signal-to-noise level,"alkaline phosphatase [2]; enhancer NONE, 20 min",73
same,Detection limit for alkaline phosphatase,"alkaline phosphatase [3]; ENHANCER 1, 5 MIN",3.0 femtomoles/liter
same,Detection limit for alkaline phosphatase,"alkaline phosphatase [3]; ENHANCER 1, 20 MIN",0.8 femtomoles/liter
same,Detection limit for alkaline phosphatase,"alkaline phosphatase [3]; ENHANCER 2, 5 MIN",1.0 femtomoles/liter
same,Detection limit for alkaline phosphatase,"alkaline phosphatase [3]; ENHANCER 2, 20 MIN",0.3 femtomoles/liter
"COC1(c2cccc(OP(=O)(O)O)c2)OOC12C1CC3CC2CC(I)(C3)C1 (single isomer, unassigned) [ISPD-B]",HALF-TIME TO PLATEAU (min.) AL LOW ALK PHOS CONCENTRATION,alkaline phosphatase [1],0.70 min
CCCCOC12CC3CC(C1)C1(OOC1(OC)c1cccc(OP(=O)(O)O)c1)C(C3)C2 (centres unmarked) [n-BuO-AMPPD],HALF-TIME TO PLATEAU (min.) AL LOW ALK PHOS CONCENTRATION,alkaline phosphatase [1],0.71 min
COC1(c2cccc(OP(=O)(O)O)c2)OOC12C1CC3CC2CC(F)(C3)C1 (centres unmarked) [FSPD],HALF-TIME TO PLATEAU (min.) AL LOW ALK PHOS CONCENTRATION,alkaline phosphatase [1],0.74 min
COC1(c2cccc(OP(=O)(O)O)c2)OOC12C1CC3CC2CC(Cl)(C3)C1 (centres unmarked) [CSPD],HALF-TIME TO PLATEAU (min.) AL LOW ALK PHOS CONCENTRATION,alkaline phosphatase [1],0.71 min
"COC1(c2cccc(OP(=O)(O)O)c2)OOC12C1CC3CC2CC(Br)(C3)C1 (centres unmarked) [Br-AMPPD, disodium 3-(4-methoxyspiro-[1,2-dioxetane-3,2'-(5'-bromo)tricyclo[3.3.1.1^3,7]decan]-4-yl) phenyl phosphate]",Total Decay Time,[4],40 min
same,Decay Rate I,[4]; RLU's per minute,1.2 RLU's per minute
same,Decay Rate II,[4]; RLU's per minute,0.8 RLU's per minute
same,chemiluminescent signal-to-noise level,"alkaline phosphatase [2]; EMERALD 1 1 mg/ml, 5 min",149
same,chemiluminescent signal-to-noise level,"alkaline phosphatase [2]; EMERALD 1 1 mg/ml, 20 min",915
same,chemiluminescent signal-to-noise level,"alkaline phosphatase [2]; EMERALD 2 1 mg/ml, 5 min",315
same,chemiluminescent signal-to-noise level,"alkaline phosphatase [2]; EMERALD 2 1 mg/ml, 20 min",503
same,chemiluminescent signal-to-noise level,"alkaline phosphatase [2]; SAPPHIRE 1 1 mg/ml, 5 min",383
same,chemiluminescent signal-to-noise level,"alkaline phosphatase [2]; SAPPHIRE 1 1 mg/ml, 20 min",566
same,chemiluminescent signal-to-noise level,"alkaline phosphatase [2]; SAPPHIRE 2 1 mg/ml, 5 min",688
same,chemiluminescent signal-to-noise level,"alkaline phosphatase [2]; SAPPHIRE 2 1 mg/ml, 20 min",1019
same,chemiluminescent signal-to-noise level,alkaline phosphatase [2]; [8],77
same,chemiluminescent signal-to-noise level,"alkaline phosphatase [2]; enhancer NONE, 20 min",92
same,Detection limit for alkaline phosphatase,"alkaline phosphatase [3]; ENHANCER 1, 5 MIN",2.6 femtomoles/liter
same,Detection limit for alkaline phosphatase,"alkaline phosphatase [3]; ENHANCER 1, 20 MIN",0.5 femtomoles/liter
same,Detection limit for alkaline phosphatase,"alkaline phosphatase [3]; ENHANCER 2, 5 MIN",0.4 femtomoles/liter
same,Detection limit for alkaline phosphatase,"alkaline phosphatase [3]; ENHANCER 2, 20 MIN",0.3 femtomoles/liter
same,Detection limit (in picograms DNA) 5. min. exp.,[5]; BDMQ blocking step,0.313 picograms DNA
same,Detection limit (in picograms DNA) 1 min. exp.,[5]; BDMQ blocking step,0.313 picograms DNA
same,Detection limit (in picograms DNA) 5. min. exp.,[5]; no BDMQ blocking step,1.250 picograms DNA
same,Detection limit (in picograms DNA) 1 min. exp.,[5]; no BDMQ blocking step,2.500 picograms DNA
same,Alkaline phosphatase detection limit (at 2× background),alkaline phosphatase [6]; SAPPHIRE II,0.00074 pM
same,Alkaline phosphatase detection limit (at 2× background),alkaline phosphatase [6]; SAPPHIRE,0.00021 pM
same,Alkaline phosphatase detection limit (at 2× background),"alkaline phosphatase [7]; SAPPHIRE II, 5 MINUTE INCUBATION",0.0004 pM
same,Alkaline phosphatase detection limit (at 2× background),"alkaline phosphatase [7]; SAPPHIRE II, 20 MINUTE INCUBATION",0.00039 pM
same,Alkaline phosphatase detection limit (at 2× background),"alkaline phosphatase [7]; SAPPHIRE, 5 MINUTE INCUBATION",0.0027 pM
same,Alkaline phosphatase detection limit (at 2× background),"alkaline phosphatase [7]; SAPPHIRE, 20 MINUTE INCUBATION",0.0004 pM
"COC1(c2cccc(OP(=O)(O)O)c2)OOC12C1CC3CC2CC(OC(C)C)(C3)C1 (single isomer, unassigned) [i-PrO-AMPPD-B]",HALF-TIME TO PLATEAU (min.) AL LOW ALK PHOS CONCENTRATION,alkaline phosphatase [1],0.68 min
"COC1(c2cccc(OP(=O)(O)O)c2)OOC12C1CC3CC2CC(I)(C3)C1 (single isomer, unassigned) [ISPD-A]",HALF-TIME TO PLATEAU (min.) AL LOW ALK PHOS CONCENTRATION,alkaline phosphatase [1],0.64 min
